In patent US9408885B2, “Combinations of therapeutic agents for treating melanoma” (VIB VZW, priority 2011, dated 2016):

What was measured:
[1] = system: MDM4 protein in A375 cells; assay: MDM4 protein expression level, A375; assay type: cell-based, human; conditions: A375, 5 μM, 24 hours
Method: (§1) FIG. 4: AKT inhibitors destabilize the MDM4 protein levels in melanomas.
(§2) In the present example we applied the Akt IV inhibitor on two different melanoma cell lines (i.e., the human amelanotic melanoma cell line A375 and the metastatic 451-lu human melanoma cell line, the latter also described in D. Herlyn et al. (1990), Cancer Research 50, 2296-2302).
(§3) Cells, adult tissue samples, or tumors were lysed in Giordano buffer (50 mM Tris-HCl (pH 7.4); 250 mM NaCl; 0.1% Triton X-100; 5 mM EDTA) containing phosphatase and protease inhibitors (Sigma). The adult tissue samples were sonicated three times 10 sec. The protein concentration was determined by Bradford assay (OD 595 nm; Bio-Rad Protein Assay) and 40 μg of each sample were fractionated by SDS-PAGE (Invitrogen; NuPAGE® Novex® 4-12% Bis-Tris Gel). The fractionated extracts were then transferred to a PVDF membrane (iBlot® Dry Blotting System). Membranes were blocked in Tris-buffered saline, 0.2% Tween-20 (TBST) containing 5% or 10% non-fat dry milk, and subsequently incubated with the appropriate primary antibody. […] After five washes with TBST, proteins were detected by enhanced chemiluminescense “ECL Western Blotting Detection Reagents” (Amersham Biosciences) or “SuperSignal West Femto Maximum Sensitivity Substrate” (Thermo Scientific) and visualized by exposure to X-ray film (Amersham Biosciences). […]

[2] = system: MDM4 protein in 451-lu cells; assay: MDM4 protein expression level, 451-lu; assay type: cell-based, human; conditions: 5 μM, 24 hours
Method: as §1, §2, §3

MM011 melanoma cells = conditions: MM011, 6.25-50 μM Cisplatin or 25-200 μM Melphalan, 24 hours
Method: (§4) Cell viability was measured at 24 hours by CellTiter-Glo assay. Data represent the mean (±SD) of at least three biological replicates. […] Data represent the mean (±SD) of at least three biological replicates. […] Data represent the mean (±SD) of at least three biological replicates.

MM031 melanoma cells = conditions: MM031, 6.25-50 μM Cisplatin or 25-200 μM Melphalan, 24 hours
Method: as §4

[3] = system: p53 pathway in MM cell lines overexpressing MDM4; assay: p53 tumor suppressor response (p53 and p21 protein levels) in short-term cultured melanoma cell lines; assay type: cell-based, human; conditions: all but one (MM87) of the cell lines overexpressing MDM4; nutlin-3 at high concentrations
Method: Cells, adult tissue samples, or tumors were lysed in Giordano buffer (50 mM Tris-HCl (pH 7.4); 250 mM NaCl; 0.1% Triton X-100; 5 mM EDTA) containing phosphatase and protease inhibitors (Sigma). The adult tissue samples were sonicated three times 10 sec. […] The fractionated extracts were then transferred to a PVDF membrane (iBlot® Dry Blotting System). Membranes were blocked in Tris-buffered saline, 0.2% Tween-20 (TBST) containing 5% or 10% non-fat dry milk, and subsequently incubated with the appropriate primary antibody. Membranes were washed five times with TBST and incubated with either horseradish peroxidase-conjugated horse anti-mouse or goat anti-rabbit secondary antibody (Cell Signaling). After five washes with TBST, proteins were detected by enhanced chemiluminescense “ECL Western Blotting Detection Reagents” (Amersham Biosciences) or “SuperSignal West Femto Maximum Sensitivity Substrate” (Thermo Scientific) and visualized by exposure to X-ray film (Amersham Biosciences).

Row | Structure (SMILES) | growth inhibition, alkylating agent alone (MM011 melanoma cells) | growth inhibition, alkylating agent alone (MM031 melanoma cells) | p53 protein levels and p21 expression [3] | further results
1 | CC[n+]1c(/C=C/N(C)c2ccccc2)n(-c2ccccc2)c2ccc(-c3nc4ccccc4s3)cc21.[I-] [Akt IV inhibitor] |  |  |  | protein expression level of MDM4 [1]: down-regulate; protein expression level of MDM4 [2]: down-regulate
2 | N.N.[Cl][Pt][Cl] [cisplatin] | variable growth inhibition effects | variable growth inhibition effects |  | 
3 | COc1cccc2c1C(=O)c1c(O)c3c(c(O)c1C2=O)C[C@@](O)(C(=O)CO)C[C@@H]3O[C@H]1C[C@H](N)[C@H](O)[C@H](C)O1 [doxorubicin] |  |  | increased p53 protein levels and induction of expression of p21 | 
4 | N[C@@H](Cc1ccc(N(CCCl)CCCl)cc1)C(=O)O [melphalan] | variable growth inhibition effects | variable growth inhibition effects |  | 
5 | COc1ccc(C2=N[C@@H](c3ccc(Cl)cc3)[C@@H](c3ccc(Cl)cc3)N2C(=O)N2CCNC(=O)C2)c(OC(C)C)c1 [nutlin-3] |  |  | increased p53 protein levels and induction of expression of p21 | 
